US20090018134A1, “Compounds - 945” (AstraZeneca AB, priority 2007, published 2009)

molecular target: T1, mTOR (Homo sapiens, UniProt P42345); assay: In Vitro mTOR Kinase Assay (Echo), Test (a)(ii); assay type: biochemical; conditions: read-out: mTOR Kinase Assay (Echo)
T1 construct: FLAG; made in house
From the text: (a)(ii) In Vitro mTOR Kinase Assay (Echo)
The assay used AlphaScreen technology (Gray et al., Analytical Biochemistry, 2003, 313: 234-245) to determine the ability of test compounds to inhibit phosphorylation by recombinant mTOR.
A C-terminal truncation of mTOR encompassing amino acid residues 1362 to 2549 of mTOR (EMBL Accession No. L34075) was stably expressed as a FLAG-tagged fusion in HEK293 cells as described by Vilella-Bach et al., […], 1999, 274, 4266-4272. The HEK293 FLAG-tagged mTOR (1362-2549) stable cell line was routinely maintained at 37° C. with 5% CO2 up to a confluency of 70-90% in Dulbecco's modified Eagle's growth medium (DMEM; Invitrogen Limited, Paisley, UK Catalogue No. 41966-029) containing 10% heat-inactivated foetal calf serum (FCS; Sigma, Poole, Dorset, UK, Catalogue No. F0392), 1% L-glutamine (Gibco, Catalogue No. 25030-024) and 2 mg/ml Geneticin (G418 sulfate; Invitrogen Limited, UK Catalogue No. 1013 1-027). Following expression in the mammalian HEK293 cell line, expressed protein was purified using the FLAG epitope tag using standard purification techniques.
Aliquots (120 nl […]) of each compound dilution were acoustically dispensed placed using a Labcyte Echo 550 into a well of a Greiner 384-well low volume (LV) white polystyrene plate (Greiner Bio-one).
These assay solutions were incubated for 2 hours at room temperature.
Each reaction was stopped by the addition of […] of a mixture of EDTA (50 mM), bovine serum albumin (BSA; 0.5 mg/mL) and Tris-HCl pH 7.4 buffer (50 mM) containing p70 S6 Kinase (T389) 1A5 Monoclonal Antibody (Cell Signalling Technology, Catalogue No. 9206B) and AlphaScreen Streptavidin donor and Protein A acceptor beads (200 ng; Perkin Elmer, Catalogue No. 6760002B and 6760137R respectively) were added and the assay plates were left overnight at room temperature in the dark. The resultant signals arising from laser light excitation at 680 nm were read using a Packard Envision instrument.
The phosphorylated biotinylated peptide that is associated with AlphaScreen Streptavidin donor beads forms a complex with the p70 S6 Kinase (T389) 1A5 Monoclonal Antibody that is associated with Alphascreen Protein A acceptor beads. Upon laser light excitation at 680 nm, the donor bead: acceptor bead complex produces a signal that can be measured. Accordingly, the presence of mTOR kinase activity results in an assay signal. In the presence of an mTOR kinase inhibitor, signal strength is reduced.
mTOR enzyme inhibition for a given test compound was expressed as an IC50 value.

T1 sequence (P42345 1362-2549): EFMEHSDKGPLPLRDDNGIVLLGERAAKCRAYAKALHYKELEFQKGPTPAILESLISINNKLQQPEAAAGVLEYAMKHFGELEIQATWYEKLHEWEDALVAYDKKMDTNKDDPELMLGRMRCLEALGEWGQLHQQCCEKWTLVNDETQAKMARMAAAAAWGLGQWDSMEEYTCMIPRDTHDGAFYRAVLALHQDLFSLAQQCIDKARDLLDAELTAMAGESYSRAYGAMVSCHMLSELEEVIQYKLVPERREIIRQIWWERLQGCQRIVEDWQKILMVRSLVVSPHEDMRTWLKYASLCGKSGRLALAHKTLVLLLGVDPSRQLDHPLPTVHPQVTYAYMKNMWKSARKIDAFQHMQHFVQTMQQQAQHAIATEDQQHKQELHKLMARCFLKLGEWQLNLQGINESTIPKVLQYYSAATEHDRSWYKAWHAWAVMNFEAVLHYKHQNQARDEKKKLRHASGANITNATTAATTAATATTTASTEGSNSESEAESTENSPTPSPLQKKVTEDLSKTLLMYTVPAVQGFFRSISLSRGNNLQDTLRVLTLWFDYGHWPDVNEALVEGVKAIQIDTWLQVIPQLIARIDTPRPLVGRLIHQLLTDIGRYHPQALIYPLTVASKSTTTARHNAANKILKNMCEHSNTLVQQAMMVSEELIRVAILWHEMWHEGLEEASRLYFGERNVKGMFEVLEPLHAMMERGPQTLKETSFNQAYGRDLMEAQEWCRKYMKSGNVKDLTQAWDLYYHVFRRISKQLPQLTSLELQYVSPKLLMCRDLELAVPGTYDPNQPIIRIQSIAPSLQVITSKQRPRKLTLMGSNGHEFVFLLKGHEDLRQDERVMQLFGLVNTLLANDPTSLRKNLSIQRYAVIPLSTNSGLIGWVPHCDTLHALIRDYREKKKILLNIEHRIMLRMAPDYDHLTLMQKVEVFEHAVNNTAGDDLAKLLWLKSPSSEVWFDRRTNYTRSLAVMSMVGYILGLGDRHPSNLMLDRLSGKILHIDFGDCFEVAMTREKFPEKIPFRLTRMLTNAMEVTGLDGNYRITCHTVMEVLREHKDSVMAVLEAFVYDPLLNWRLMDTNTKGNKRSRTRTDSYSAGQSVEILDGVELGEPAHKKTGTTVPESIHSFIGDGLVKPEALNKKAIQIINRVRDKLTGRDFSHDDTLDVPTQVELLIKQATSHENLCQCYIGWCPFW

Compound | IC50 [nM]
CCNC(=O)Nc1ccc(-c2nc(N3CCOC[C@@H]3C)cc(C3(S(C)(=O)=O)CC3)n2)cc1 [Example 1, 3-Ethyl-1-[4-[4-[(3S)-3-methylmorpholin-4-yl]-6-(1-methylsulfonylcyclopropyl)pyrimidin-2-yl]phenyl]urea] | 2.76
CNC(=O)Nc1ccc(-c2nc(N3CCOC[C@@H]3C)cc(C3(S(C)(=O)=O)CC3)n2)cc1 [Example 1a] | 2.79
C[C@H]1COCCN1c1cc(C2(S(C)(=O)=O)CC2)nc(-c2ccc(NC(=O)NCc3cnn(C)c3)cc2)n1 [Example 2a, 1-[4-[4-[(3S)-3-methylmorpholin-4-yl]-6-(1-methylsulfonylcyclopropyl)pyrimidin-2-yl]phenyl]-3-[(1-methylpyrazol-4-yl)methyl]urea] | 93.2
C[C@H]1COCCN1c1cc(C2(S(C)(=O)=O)CC2)nc(-c2ccc(NC(=O)NCC(C)(C)O)cc2)n1 [Example 2aa, 3-(2-hydroxy-2-methylpropyl)-1-[4-[4-[(3S)-3-methylmorpholin-4-yl]-6-(1-methylsulfonylcyclopropyl)pyrimidin-2-yl]phenyl]urea] | 27.4
C[C@H]1COCCN1c1cc(C2(S(C)(=O)=O)CC2)nc(-c2ccc(NC(=O)NC3(CO)CC3)cc2)n1 [Example 2ab, 3-[1-(hydroxymethyl)cyclopropyl]-1-[4-[4-[(3S)-3-methylmorpholin-4-yl]-6-(1-methylsulfonylcyclopropyl)pyrimidin-2-yl]phenyl]urea] | 55.3
C[C@H]1COCCN1c1cc(C2(S(C)(=O)=O)CC2)nc(-c2ccc(NC(=O)NC3COC3)cc2)n1 [Example 2ac, 1-[4-[4-[(3S)-3-methylmorpholin-4-yl]-6-(1-methylsulfonylcyclopropyl)pyrimidin-2-yl]phenyl]-3-(oxetan-3-yl)urea] | 6.41
C[C@H]1COCCN1c1cc(C2(S(C)(=O)=O)CC2)nc(-c2ccc(NC(=O)Nc3ncns3)cc2)n1 [Example 2ae, 1-[4-[4-[(3S)-3-methylmorpholin-4-yl]-6-(1-methylsulfonylcyclopropyl)pyrimidin-2-yl]phenyl]-3-(1,2,4-thiadiazol-5-yl)urea] | 0.72
C[C@H]1COCCN1c1cc(C2(S(C)(=O)=O)CC2)nc(-c2ccc(NC(=O)NCC#N)cc2)n1 [Example 2af, 3-(cyanomethyl)-1-[4-[4-[(3S)-3-methylmorpholin-4-yl]-6-(1-methylsulfonylcyclopropyl)pyrimidin-2-yl]phenyl]urea] | 46.2
C[C@H]1COCCN1c1cc(C2(S(C)(=O)=O)CC2)nc(-c2ccc(NC(=O)Nc3ccccc3)cc2)n1 [Example 2h, 1-[4-[4-[(3S)-3-methylmorpholin-4-yl]-6-(1-methylsulfonylcyclopropyl)pyrimidin-2-yl]phenyl]-3-phenyl-urea] | 0.272
CC(C)NC(=O)Nc1ccc(-c2nc(N3CCOC[C@@H]3C)cc(C3(S(C)(=O)=O)CC3)n2)cc1 [Example 2j, 1-[4-[4-[(3S)-3-methylmorpholin-4-yl]-6-(1-methylsulfonylcyclopropyl)pyrimidin-2-yl]phenyl]-3-propan-2-yl-urea] | 12
CCCNC(=O)Nc1ccc(-c2nc(N3CCOC[C@@H]3C)cc(C3(S(C)(=O)=O)CC3)n2)cc1 [Example 2k, 1-[4-[4-[(3S)-3-methylmorpholin-4-yl]-6-(1-methylsulfonylcyclopropyl)pyrimidin-2-yl]phenyl]-3-propyl-urea] | 4.06
CC(CO)NC(=O)Nc1ccc(-c2nc(N3CCOC[C@@H]3C)cc(C3(S(C)(=O)=O)CC3)n2)cc1 (stereo partly drawn) [Example 2n, 3-(1-hydroxypropan-2-yl)-1-[4-[4-[(3S)-3-methylmorpholin-4-yl]-6-(1-methylsulfonylcyclopropyl)pyrimidin-2-yl]phenyl]urea] | 8.44
COc1ccc(NC(=O)Nc2ccc(-c3nc(N4CCOC[C@@H]4C)cc(C4(S(C)(=O)=O)CC4)n3)cc2)cn1 [Example 2o, 3-(6-methoxypyridin-3-yl)-1-[4-[4-[(3S)-3-methylmorpholin-4-yl]-6-(1-methylsulfonylcyclopropyl)pyrimidin-2-yl]phenyl]urea] | 0.851

Further lines, results first:

IC50 [nM] | Compound
0.705 | C[C@H]1COCCN1c1cc(C2(S(C)(=O)=O)CC2)nc(-c2ccc(NC(=O)Nc3ccn(C)n3)cc2)n1 [Example 2ad, 1-[4-[4-[(3S)-3-methylmorpholin-4-yl]-6-(1-methylsulfonylcyclopropyl)pyrimidin-2-yl]phenyl]-3-(1-methylpyrazol-3-yl)urea]
14.9 | C[C@H]1COCCN1c1cc(C2(S(C)(=O)=O)CC2)nc(-c2ccc(NC(=O)NCc3ncn[nH]3)cc2)n1 [Example 2ag, 1-[4-[4-[(3S)-3-methylmorpholin-4-yl]-6-(1-methylsulfonylcyclopropyl)pyrimidin-2-yl]phenyl]-3-(2H-1,2,4-triazol-3-ylmethyl)urea]
1.21 | C[C@H]1COCCN1c1cc(C2(S(C)(=O)=O)CC2)nc(-c2ccc(NC(=O)NC3CCC3)cc2)n1 [Example 2c, 3-cyclobutyl-1-[4-[4-[(3S)-3-methylmorpholin-4-yl]-6-(1-methylsulfonylcyclopropyl)pyrimidin-2-yl]phenyl]urea]
23.9 | C[C@H]1COCCN1c1cc(C2(S(C)(=O)=O)CC2)nc(-c2ccc(NC(=O)NCc3ncc[nH]3)cc2)n1 [Example 2d, 3-(1H-imidazol-2-ylmethyl)-1-[4-[4-[(3S)-3-methylmorpholin-4-yl]-6-(1-methylsulfonylcyclopropyl)pyrimidin-2-yl]phenyl]urea]
279 | C[C@H]1COCCN1c1cc(C2(S(C)(=O)=O)CC2)nc(-c2ccc(NC(=O)NCCN(C)C)cc2)n1 [Example 2e, 3-(2-dimethylaminoethyl)-1-[4-[4-[(3S)-3-methylmorpholin-4-yl]-6-(1-methylsulfonylcyclopropyl)pyrimidin-2-yl]phenyl]urea]
4.33 | C[C@H]1COCCN1c1cc(C2(S(C)(=O)=O)CC2)nc(-c2ccc(NC(=O)NC(C)(C)CO)cc2)n1 [Example 2f, 3-(1-hydroxy-2-methyl-propan-2-yl)-1-[4-[4-[(3S)-3-methylmorpholin-4-yl]-6-(1-methylsulfonylcyclopropyl)pyrimidin-2-yl]phenyl]urea]
0.137 | C[C@H]1COCCN1c1cc(C2(S(C)(=O)=O)CC2)nc(-c2ccc(NC(=O)Nc3ccon3)cc2)n1 [Example 2g, 1-[4-[4-[(3S)-3-methylmorpholin-4-yl]-6-(1-methylsulfonylcyclopropyl)pyrimidin-2-yl]phenyl]-3-(1,2-oxazol-3-yl)urea]
2.07 | C[C@H]1COCCN1c1cc(C2(S(C)(=O)=O)CC2)nc(-c2ccc(NC(=O)NCCO)cc2)n1 [Example 2i, 3-(2-hydroxyethyl)-1-[4-[4-[(3S)-3-methylmorpholin-4-yl]-6-(1-methylsulfonylcyclopropyl)pyrimidin-2-yl]phenyl]urea]
11.6 | CC(C)CNC(=O)Nc1ccc(-c2nc(N3CCOC[C@@H]3C)cc(C3(S(C)(=O)=O)CC3)n2)cc1 [Example 2l, 1-[4-[4-[(3S)-3-methylmorpholin-4-yl]-6-(1-methylsulfonylcyclopropyl)pyrimidin-2-yl]phenyl]-3-(2-methylpropyl)urea]
5.89 | C[C@H]1COCCN1c1cc(C2(S(C)(=O)=O)CC2)nc(-c2ccc(NC(=O)NCC3CC3)cc2)n1 [Example 2m, 3-(cyclopropylmethyl)-1-[4-[4-[(3S)-3-methylmorpholin-4-yl]-6-(1-methylsulfonylcyclopropyl)pyrimidin-2-yl]phenyl]urea]

same assay, conditions: table of enzyme assay Test (a)(ii); read-out: Test (a)(ii) IC50

Compound | IC50 [nM]
1-[4-[4-[1-(2,4-difluorophenyl)sulfonylcyclopro-pyl]-6-[(3S)-3-methylmorpholin-4-yl]pyrimidin-2-yl]phenyl]-3-(2-hydroxyethyl)urea [Example 57b] | 4.57
3-(2,2-difluoroethyl)-1-[4-[4-[1-(2,4-difluorophenyl)sulfonylcyclopro-pyl]-6-[(3S)-3-methylmorpholin-4-yl]pyrimidin-2-yl]phenyl]urea [Example 57d] | 10
3-(3-hydroxypropyl)-1-[4-[4-[1-(3-hydroxypropylsulfonyl)cyclopro-pyl]-6-[(3S)-3-methylmorpholin-4-yl]pyrimidin-2-yl]phenyl]thiourea [Example 37f] | 120
CCCNC(=O)Nc1ccc(-c2nc(N3CCOC[C@@H]3C)cc(C3(S(C)(=O)=O)CC3)n2)cc1 [Example 2k, 1-[4-[4-[(3S)-3-methylmorpholin-4-yl]-6-(1-methylsulfonylcyclopropyl)pyrimidin-2-yl]phenyl]-3-propyl-urea] | 3.81
COc1ccc(NC(=O)Nc2ccc(-c3nc(N4CCOC[C@@H]4C)cc(C4(S(C)(=O)=O)CC4)n3)cc2)cn1 [Example 2o, 3-(6-methoxypyridin-3-yl)-1-[4-[4-[(3S)-3-methylmorpholin-4-yl]-6-(1-methylsulfonylcyclopropyl)pyrimidin-2-yl]phenyl]urea] | 0.403

The remaining lines, values ahead:

IC50 [nM] | Compound
1.86 | C[C@H]1COCCN1c1cc(C2(S(C)(=O)=O)CC2)nc(-c2ccc(NC(=O)NC3CCC3)cc2)n1 [Example 2c, 3-cyclobutyl-1-[4-[4-[(3S)-3-methylmorpholin-4-yl]-6-(1-methylsulfonylcyclopropyl)pyrimidin-2-yl]phenyl]urea]
0.231 | C[C@H]1COCCN1c1cc(C2(S(C)(=O)=O)CC2)nc(-c2ccc(NC(=O)Nc3ccon3)cc2)n1 [Example 2g, 1-[4-[4-[(3S)-3-methylmorpholin-4-yl]-6-(1-methylsulfonylcyclopropyl)pyrimidin-2-yl]phenyl]-3-(1,2-oxazol-3-yl)urea]
